Broadly, the CC50 is the concentration that lowers cell viability or growth by half.

This is an account of results in patent US5616578A (priority 1993, dated 1997).

The nature of one data set: in vitro. To be noted: human, mt-2 cells. Here is the method:
Cell viability was determined by the metabolism of the tetrazolium dye, XTT, 3,3'-[1-[phenylamino)carbonyl]-3,4-tetrazolium]bis-(4-methoxy-6-nitrobenzene-sulfonic acid(Sigma)(Scudiero et al., Cancer Res. 48:4827-4833 (1988)). In this assay metabolically active cells transform the tetrazolium dye, XTT, to a soluble colored formazan product. Microtiter plates (96 wells) were seeded with 1×10^5 cells/well and graded concentrations of test compounds in RPMI 1640 plus 5% FCS. Cells (MT-2) were allowed to grow at 36° C. in the presence of compounds for 3 days. To each well was added 0.05 ml of 1 mg XTT/ml in phosphate buffered saline (PBS) containing 0.025 mM phenazine methosulfate. Plates were incubated an additional four hours at 36° C. and the A450 was determined. The absorption was proportional to the number of viable cells in the well. The concentration of compound which produced a 50% reduction in the number of viable cells was designated the TC50.
In order to determine how these combinations affect cell viability, a cytotoxicity assay was conducted on combinations of the two compounds over the range 0.3-100 μg/ml and the TC50 s calculated.

For data set [1] the following is noted: AZT treatment of HIV positive individuals; cited from earlier work.
The next data set has as its system HIV strains. To be noted: time of AZT treatment after which resistant strains observed; cited from earlier work.

As for `Cc1cn([C@H]2C[C@H](N=[N+]=[N-])[C@@H](CO)O2)c(=O)[nH]c1=O` [AZT, 3'-azido-3'-deoxythymidine], in “in vitro”, the CC50 at 72 h is above 100 µg/mL. Also, the Toxicity result in data set [1] was “frequently toxic, causing bone marrow suppression resulting in anemia, leukopenia and thrombocytopenia”. The “AZT-resistant HIV strains observed” value in the data set on HIV strains is on record as “six”.
